From patent publication US8829002B2, “Substituted methyl amines, serotonin 5-HT6 receptor antagonists, methods for production and use thereof” (priority 2010, dated 2014)

Experiments:
Type in all cases: in vivo
male mice of BALB/c line [1] = assay: Passive Avoidance of mice in the Shuttle Chamber, memory disturbed by Scopolamine; settings: Scopolamine 0.3 mg/kg, intraperitoneally 30 minutes before training; FIG. 1-3
Description: Nootropic action (enhancement of memory disturbed by Scopolamine) of compounds of the general formula 1 in the test “Passive Avoidance of mice in the Shuttle Chamber”. A shuttle chamber (Ugo Basile, Italy) consisted of two sections was used. […] The sections were connected through a hole which could be overlapped by vertical door. The floor of the dark section was made of transverse metal bars on which DC current impulses could be fed. Experiments were carried out in aged male mice of BALB/c line weighing 20-25 grams.
On the first day of the experiment 30 minutes before training mice were injected intraperitoneally with physiological solution, Scopolamine (0.3 mg/kg), or Scopolamine in combination with compound 1.5(1). Each group consisted of 8 animals at least. The animals were placed in the light section, and latent period of the first entry into the dark chamber was registered. Then the vertical door was closed and the animal was punished by 0.6 mA DC current for 3 seconds. After that the animal was taken back to its home cage. In 22-24 hours the same animal was placed again in the light section of the shuttle chamber and latent period of its first entry into the dark section, the total time of its stay in the light section and the number of entries into dark section were registered. Each monitoring lasted for 5 minutes. […]

male mice of BALB/c line [2] = assay: Passive Avoidance of mice in the Shuttle Chamber, memory disturbed by MK-801; settings: MK-801 0.1 mg/kg, intraperitoneally 30 min before training; FIG. 4-6
male mice of BALB/c line [3] = assay: Mice Behavior in the Elevated Plus Maze; settings: 5 minutes, FIG. 7-9
Description: Anxiolytic (tranquilizing) action of compounds of the general formula 1 in “Mice Behavior in the Elevated Plus Maze” test. Compounds 1.1(9), 1.5 (1) and 1.8(7) were employed in the experiments. Arm length was 30 cm, width—5 cm, wall hight—15 cm. Two opposite arms were closed from both sides and end surfaces with transparent plexiglass; two others—lighted and opened. A mouse was placed in the maze center, and over a period of 5 minutes the number of opened and closed arms entries and duration of opened and closed arm entries were registered. […] Being in normal state animals avoid opened arms (index of preference makes 0.2-0.3). Compounds with anxiolytic activity (tranquilizing activity) run this value up to 0.5-0.6 and more, and also decrease the number of defecations without changing overall physical activity (general number of arm entries).

Male rats of Vistar line = assay: Appetite Control Test; settings: dose 10 mg/kg intraperitoneally 60 minutes before the test; 16 h food deprivation; FIG. 10
Description: Male rats of Vistar line weighing 230-360 g were housed in standard home cages with water and food available with the exception of short periods of food deprivation (16 hs) just before the Appetite test. The Appetite test was carried out in individual cages with overhead cover made of wire in the niches of which a portion of food granules was inserted. Mass of the granules was examined every 30 minutes for 3 h. On the basis of these measurements food consumption was estimated and stated in grams of food per kilogram of body mass. Placebo and compound 1.5(1) (dose 10 mg/kg) were injected intraperitoneally 60 minutes before the test. Each experimental group of animals consisted of 10 rats. Compound was dissolved in sterilized water. The injection volume was 10 ml/kg. Intact animals which were not undergone food deprivation, and animals after food deprivation, but injected with sterilized water, were used as control. Intact animals which were not undergone food deprivation and injected with sterilized water, were used as control. The experiment was carried out also using compounds 1.1(9) and 1.8(7).

Mice of SHK line = assay: Prepulse inhibition of the startle response in mice (Apomorphine model); settings: 1 mg/kg, 60 minutes before the test; FIG. 11
Description: Antipsychotic activity of compounds of the general formula 1 in “Prepulse inhibition of the startle response in mice” test. Mice of SHK line weighing about 24-30 g were used in the test. Experiments were carried out during light period of animal's diurnal. Apomorphine hydrochloride and Haloperidol were received from Sigma Chemicals Company, (USA). Apomorphine hydrochloride was dissolved in 0.1% solution of ascorbic acid prepared with sterilized water; it was introduced subcutaneously 15 minutes before the test. Haloperidol was dissolved in sterilized water using emulsifier Twin 80, it was introduced intraperitoneally 60 minutes before the test. Compound 1.5(1) was dissolved in sterilized water, it was introduced subcutaneously 60 minutes before the test. Injection volume was 10 ml/kg. Solution of ascorbic acid prepared with sterilized water and Twin 80 were injected to control group of animals.
The test instrument consisted of a chamber made of transparent plexiglass (manufacturer—Columbia Instruments Company, USA) and placed on a platform; the latter was lodged inside the sound insulating chamber. High frequency sound column transmitting acoustic stimulus was located 2 cm away from the platform. […] Level of background noise made up 65 dB. Each animal received 4 stimuli of single testing (pulse) stimulus of 50 ms duration and 105 dB or prepulsory stimulus (pre-pulse) of 20 ms duration and 85 dB, after which in 30 ms pulse stimulus of 50 ms duration and 105 dB followed. Time interval between repeated pulse or prepulse in combination with pulse stimuli made up 10 s. Inhibition of the startle in reply to prepulse-plus-pulse stimulus was calculated in percentage towards amplitude of startle in response to isolated pulse stimulus. Administration of Apomorphine, which is used in experiments on animals for modelling of psychoto-like conditions, caused reduction of prepulse inhibition of startle, which reflected the lowering of CNS ability to filter sensory stimulus. The experiment was also carried out using compounds 1.1(9) and 1.8(7).

male mice of BALB/c line [4] = assay: Porsolt's Forced Swim Test; settings: after 4 days administration in doses of 1 mg/kg; last 5 minutes of 15 min test; FIG. 12
Description: Antidepressant action of antagonists of the general formula 1 in Porsolt's Forced Swim Test. The test apparatus represented a plastic vessel filled with water up to height of 18 cm at 20-22° C. Experiments were carried out in aged male mice of BALB/c line weighing 20-24 grams. An animal was placed in water and for 15 minutes the duration of immobile hanging in water—so named behavioural despaire which is considered to be a measure of depressively-like state, was registered. The last 5 minutes of the test were used for estimation. Automated computerized detection of motion with video system and Any-maze program were used in test.

male mice of BALB/c line [5] = assay: Tail suspension test; settings: after 4 days administration in doses of 0.1 mg/kg; 3 minutes; FIG. 13
Description: Antidepressant action of compounds of the general formula 1 in tail suspension test. Experiments were carried out in aged male mice of BALB/c line weighing 20-24 grams. In the test mice were suspended by tail with scotch tape on holder over horizontal surface at a height of about 40 cm, and for 3 minutes the total duration of complete immobility episodes which is considered to be a measure of depressively-like state was registered. Automated computerized detection of motion with video system and Any-maze program were used in test.

Row | SMILES | Nootropic action (enhancement of memory disturbed by Scopolamine) (male mice of BALB/c line [1]) | Nootropic action (enhancement of memory disturbed by MK-801) (male mice of BALB/c line [2]) | Anxiolytic (tranquilizing) action (male mice of BALB/c line [3]) | Appetite (food consumption) after food deprivation (Male rats of Vistar line) | Antipsychotic activity: prepulse inhibition of startle disturbed by Apomorphine (Mice of SHK line) | Antidepressant action: duration of immobile hanging in water (behavioural despaire) (male mice of BALB/c line [4]) | Antidepressant action: total duration of complete immobility (male mice of BALB/c line [5])
1 | CNc1ccc(N2CCNCC2)cc1S(=O)(=O)c1cccc(F)c1 [1.1(9), methyl-[4-piperazin-1-yl-6-(3-fluorophenylsulfonyl)phenyl]-amine] | produce nootropic action more effectively | produce nootropic action | anxiolytic (tranquilizing) activity comparable to the activity of Buspirone and Lorazepam | capable to prevent appetite rising in rats | prevented disturbance of prepulse inhibition of startle caused by Apomorphine | diminish the given parameter | diminish the duration of complete immobility of mice
2 | O=C(CCCN1CCC(O)(c2ccc(Cl)cc2)CC1)c1ccc(F)cc1 [Haloperidol, reference compound] |  |  |  |  | prevented disturbance of prepulse inhibition of startle caused by Apomorphine |  | 
3 | CNc1c(S(=O)(=O)c2ccccc2)cnc2c(N3CCNCC3)cccc12 [1.5 (1), methyl-(8-piperazin-1-yl-3-phenylsulfonylquinolin-4-yl)-amine] | produce nootropic action more effectively | produce nootropic action | anxiolytic (tranquilizing) activity comparable to the activity of Buspirone and Lorazepam | capable to prevent appetite rising in rats | prevented disturbance of prepulse inhibition of startle caused by Apomorphine | diminish the given parameter | diminish the duration of complete immobility of mice
